Assay results as given in PubChem BioAssay AID256 (DTP/NCI, 2004).
Several values for one entry are separate records, joined by “and”; a condition that tells them apart may be missing. Equal values may be shown once. Inconclusive results and toxic doses are left out. The calls were made as follows: active = survival T/C of 150% or more; inactive = T/C below 125% in these data.

Tested on: CD2F1 mice, L1210 leukemia ip, survival T/C
Assay: NCI In Vivo Anticancer Drug Screen. Data for tumor model L1210 Leukemia (intraperitoneal) in CD2F1 (CDF1) mice
Conditions: higher = longer survival
In short: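 Tumor-bearing mice (transplanted tumor) were split into treated and vehicle control groups, and the measured endpoint of each treated group was divided by that of its vehicle controls.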

[1] = endpoint: mean survival time, dose: 100.0 mg/kg/injection, schedule: Q04DX002 (ip), vehicle: saline with Tween-80
[2] = endpoint: mean survival time, dose: 200.0 mg/kg/injection, schedule: Q04DX002 (ip), vehicle: saline with Tween-80
[3] = endpoint: mean survival time, dose: 100.0 mg/kg/injection, schedule: Q04DX003 (ip), vehicle: saline with Tween-80
[4] = endpoint: mean survival time, dose: 200.0 mg/kg/injection, schedule: Q04DX003 (ip), vehicle: saline with Tween-80
[5] = endpoint: mean survival time, dose: 400.0 mg/kg/injection, schedule: Q04DX003 (ip), vehicle: saline with Tween-80
[6] = endpoint: mean survival time, dose: 100.0 mg/kg/injection, schedule: Q01DX009 (ip), vehicle: saline with Tween-80
[7] = endpoint: mean survival time, dose: 100.0 mg/kg/injection, schedule: Q04DX003 (ip), vehicle: saline
[8] = endpoint: mean survival time, dose: 200.0 mg/kg/injection, schedule: Q01DX009 (ip), vehicle: saline with Tween-80
[9] = endpoint: mean survival time, dose: 200.0 mg/kg/injection, schedule: Q04DX003 (ip), vehicle: saline
[10] = endpoint: mean survival time, dose: 400.0 mg/kg/injection, schedule: Q01DX009 (ip), vehicle: saline with Tween-80
[11] = endpoint: mean survival time, dose: 400.0 mg/kg/injection, schedule: Q04DX003 (ip), vehicle: saline
[12] = endpoint: mean survival time, dose: 50.0 mg/kg/injection, schedule: Q01DX009 (ip), vehicle: saline with Tween-80
[13] = endpoint: mean survival time, dose: 100.0 mg/kg/injection, schedule: Q01DX001 (ip), vehicle: saline with Tween-80
[14] = endpoint: mean survival time, dose: 200.0 mg/kg/injection, schedule: Q01DX001 (ip), vehicle: saline with Tween-80

Measured: T/C

OC1(Cc2ccccc2)CCCCCC1
inactive: endpoint: mean survival time, dose: 100.0 mg/kg/injection, schedule: Q04DX002 (ip), vehicle: other 95 % of control | endpoint: mean survival time, dose: 200.0 mg/kg/injection, schedule: Q04DX002 (ip), vehicle: other 92 % of control | endpoint: mean survival time, dose: 400.0 mg/kg/injection, schedule: Q04DX002 (ip), vehicle: other 92 % of control

CCN1CCC2OCOC2C1 (configuration not stated)
inactive: endpoint: mean survival time, dose: 75.0 mg/kg/injection, schedule: Q01DX001 (ip), vehicle: saline 102 % of control | endpoint: mean survival time, dose: 150.0 mg/kg/injection, schedule: Q01DX001 (ip), vehicle: saline 102 % of control

CC(CCC1OC2CC3C4CCC5CC(OC(=O)c6ccccc6)CCC5(C)C4CCC3(C)C2C1C)COC(=O)c1ccccc1 (configuration not stated)
inactive: [1] 90 % of control | [2] 94 % of control | endpoint: mean survival time, dose: 400.0 mg/kg/injection, schedule: Q04DX002 (ip), vehicle: saline with Tween-80 86 % of control

OCC(O)COCC#Cc1ccccc1 (configuration not stated)
inactive: endpoint: mean survival time, dose: 25.0 mg/kg/injection, schedule: Q01DX009 (ip), vehicle: water 97 % of control | endpoint: mean survival time, dose: 50.0 mg/kg/injection, schedule: Q01DX009 (ip), vehicle: water 92 % of control | endpoint: mean survival time, dose: 100.0 mg/kg/injection, schedule: Q01DX009 (ip), vehicle: water 101 % of control | endpoint: mean survival time, dose: 200.0 mg/kg/injection, schedule: Q01DX009 (ip), vehicle: water 101 % of control

Cc1cc(=O)cc(CC(=O)C(=O)O)o1
inactive: endpoint: mean survival time, dose: 100.0 mg/kg/injection, schedule: Q01DX009 (ip), vehicle: saline sonified 101 % of control | [3] 97 % of control | [4] 95 % of control | [5] 97 % of control

CCCCN1C(=O)N(c2ccc(OCC)cc2)C2N(CCCC)C1C(C)(C)C2(C)C (configuration not stated)
inactive: [1] 107 % of control | endpoint: median survival time, dose: 7.5 mg/kg/injection, schedule: Q01DX005 (ip), vehicle: saline with Tween-80 107 % of control | endpoint: median survival time, dose: 15.0 mg/kg/injection, schedule: Q01DX005 (ip), vehicle: saline with Tween-80 110 % of control | endpoint: median survival time, dose: 30.0 mg/kg/injection, schedule: Q01DX005 (ip), vehicle: saline with Tween-80 101 % of control | endpoint: median survival time, dose: 60.0 mg/kg/injection, schedule: Q01DX005 (ip), vehicle: saline with Tween-80 101 % of control | endpoint: median survival time, dose: 120.0 mg/kg/injection, schedule: Q01DX005 (ip), vehicle: saline with Tween-80 113 % of control

CCOC(=O)Cc1cccc(C)n1
inactive: [6] 104 % of control | [7] 94 % of control | [8] 98 % of control | [9] 92 % of control | [10] 100 % of control | [11] 94 % of control

CCOC(=O)C(C(=O)OCC)=C1CCC(=O)O1
inactive: [1] 111 % of control | [2] 90 % of control

Nc1ccccc1SC1CC(=O)N(c2ccccc2Cl)C1=O (configuration not stated)
inactive: [3] 93 % of control | [4] 89 % of control | [5] 89 % of control

Cc1c(C(=O)O)cc([N+](=O)[O-])cc1[N+](=O)[O-]
inactive: [6] 102 % of control | [8] 100 % of control | [10] 96 % of control

O=C1C=CC(=O)N1c1ccccc1Cl (tested in a mixture with another compound)
inactive: [6] 95 % of control | [8] 96 % of control | [10] 98 % of control

COc1ccccc1N1CCCSC1=Nc1ccccc1
inactive: endpoint: mean survival time, dose: 100.0 mg/kg/injection, schedule: Q04DX002 (ip), vehicle: saline 98 % of control | endpoint: mean survival time, dose: 200.0 mg/kg/injection, schedule: Q04DX002 (ip), vehicle: saline 94 % of control

CC1OC(=O)C(C(C)C)NC(=O)C(C(C)C)OC(=O)C(C(C)C)NC(=O)C(C)OC(=O)C(C(C)C)NC(=O)C(C(C)C)OC(=O)C(C(C)C)NC(=O)C(C)OC(=O)C(C(C)C)NC(=O)C(C(C)C)OC(=O)C(C(C)C)NC1=O (configuration not stated)
inactive: endpoint: mean survival time, dose: 1.25 mg/kg/injection, schedule: Q01DX009 (ip), vehicle: saline with Tween-80 109 % of control | endpoint: mean survival time, dose: 2.5 mg/kg/injection, schedule: Q01DX009 (ip), vehicle: saline with Tween-80 103 % of control and 107 % of control | endpoint: mean survival time, dose: 5.0 mg/kg/injection, schedule: Q01DX009 (ip), vehicle: saline with Tween-80 103 % of control and 110 % of control | endpoint: mean survival time, dose: 10.0 mg/kg/injection, schedule: Q01DX009 (ip), vehicle: saline with Tween-80 106 % of control | endpoint: mean survival time, dose: 20.0 mg/kg/injection, schedule: Q01DX009 (ip), vehicle: saline with Tween-80 112 % of control

CCOC(=O)CN(CC(=O)OCC)c1ccc(C(C)=O)cc1
inactive: [7] 105 % of control | [9] 94 % of control

COC(=O)C(Cl)C(Cl)c1ccccc1 (configuration not stated)
inactive: [6] 100 % of control | [8] 105 % of control | [10] 101 % of control

FC(F)(F)C(Cl)(c1ccc(Cl)cc1)c1ccc(Cl)cc1
inactive: endpoint: mean survival time, dose: 50.0 mg/kg/injection, schedule: Q04DX003 (sc), vehicle: olive oil, sesame oil, peanut oil 101 % of control | endpoint: mean survival time, dose: 100.0 mg/kg/injection, schedule: Q04DX003 (sc), vehicle: olive oil, sesame oil, peanut oil 108 % of control | endpoint: mean survival time, dose: 200.0 mg/kg/injection, schedule: Q04DX003 (sc), vehicle: olive oil, sesame oil, peanut oil 97 % of control | endpoint: mean survival time, dose: 400.0 mg/kg/injection, schedule: Q04DX003 (sc), vehicle: olive oil, sesame oil, peanut oil 101 % of control

CC(C)(C)NCC(CN(CC(CNC(C)(C)C)C(=O)c1ccccc1)C(C)(C)C)C(=O)c1ccccc1 (configuration not stated)
inactive: endpoint: mean survival time, dose: 12.5 mg/kg/injection, schedule: Q04DX003 (ip), vehicle: Klucel (hydroxypropylcellulose) (HPC) 98 % of control | endpoint: mean survival time, dose: 25.0 mg/kg/injection, schedule: Q04DX003 (ip), vehicle: Klucel (hydroxypropylcellulose) (HPC) 96 % of control | endpoint: mean survival time, dose: 50.0 mg/kg/injection, schedule: Q04DX003 (ip), vehicle: Klucel (hydroxypropylcellulose) (HPC) 102 % of control

O=C(Nc1c(Cl)cccc1Cl)OCCOc1ccc(Br)cc1
inactive: [12] 100 % of control | [6] 103 % of control | [8] 107 % of control

CCN(CC)c1nc(N(CC)CC)nc(N(CC)CC)n1
inactive: endpoint: mean survival time, dose: 25.0 mg/kg/injection, schedule: Q01DX009 (ip), vehicle: saline with Tween-80 93 % of control | [12] 93 % of control | [6] 95 % of control | [8] 93 % of control

CCn1ncc2ccc(N(CO)CO)cc21
inactive: [7] 103 % of control | [9] 106 % of control | [11] 100 % of control

O=C1c2cccc(NCCCNCCO)c2C(=O)c2cccc(NCCCNCCO)c21
inactive: endpoint: median survival time, dose: 6.25 mg/kg/injection, schedule: Q01DX009 (ip), vehicle: acid diluted with saline 105 % of control | endpoint: median survival time, dose: 12.5 mg/kg/injection, schedule: Q01DX009 (ip), vehicle: acid diluted with saline 117 % of control | endpoint: median survival time, dose: 25.0 mg/kg/injection, schedule: Q01DX009 (ip), vehicle: acid diluted with saline 116 % of control | endpoint: median survival time, dose: 50.0 mg/kg/injection, schedule: Q01DX009 (ip), vehicle: acid diluted with saline 88 % of control

Nc1cc(N)nc(N)n1
inactive: [13] 103 % of control | [14] 105 % of control

Nc1ccc(S(=O)(=O)S(=O)(=O)c2ccc(N)cc2)cc1
inactive: [13] 93 % of control | [14] 97 % of control

Cc1cc(C)c(C(=O)C(=S)N2CCOCC2)c(C)c1
inactive: endpoint: mean survival time, dose: 100.0 mg/kg/injection, schedule: Q04DX003 (ip), vehicle: acetone 98 % of control | endpoint: mean survival time, dose: 200.0 mg/kg/injection, schedule: Q04DX003 (ip), vehicle: acetone 104 % of control | endpoint: mean survival time, dose: 400.0 mg/kg/injection, schedule: Q04DX003 (ip), vehicle: acetone 93 % of control

O=C(CCN1CC1)Nc1ccc(NC(=O)CCN2CC2)cc1
inactive: endpoint: mean survival time, dose: 5.0 mg/kg/injection, schedule: Q04DX003 (ip), vehicle: Klucel (hydroxypropylcellulose) (HPC) 106 % of control | endpoint: mean survival time, dose: 80.0 mg/kg/injection, schedule: Q04DX003 (ip), vehicle: Klucel (hydroxypropylcellulose) (HPC) 115 % of control

O=C(O)C(=O)O.O=C(O)C(=O)O.O=C(O)C(=O)O.[Co]
inactive: endpoint: mean survival time, dose: 50.0 mg/kg/injection, schedule: Q04DX002 (ip), vehicle: saline 93 % of control
